Data on 22 compounds can be found in paper PMC6826492, “Experimental and Computational Study of the Antioxidative Potential of Novel Nitro and Amino Substituted Benzimidazole/Benzothiazole-2-Carboxamides with Antiproliferative Activity” (Antioxidants, 2019).

The conditions of series [1]: cited from earlier work; for N–H BDE: in water ref 48.
Series [2] is described as follows: DFT calculation of bond dissociation and ionization energies. To be noted: for BDE lower than BDE (M1): difference to M1. From the text:
All geometrical parameters were optimized employing the density functional theory (DFT) B3LYP functional (unrestricted UB3LYP for the radicals), together with the 6–31+G(d) basis set, followed by the vibrational analysis using the Gaussian 16 software. Thermal corrections were extracted from the matching uncorrected vibrational frequencies, also used to confirm the obtained structures as true minima by the lack of imaginary frequencies. The final electronic energies were refined through single-point calculations with a highly flexible 6–311++G(2df,2pd) basis set. Solvent effects were considered through the implicit SMD polarizable continuum model with all parameters for pure ethanol (ε = 24.852), giving the B3LYP/6–311++G(2df,2pd)//(SMD)/B3LYP/6–31+G(d) model employed here, being fully in line with our earlier reports. As such, all computational values correspond to differences in Gibbs free energies obtained at a room temperature of 298 K and a normal pressure of 1 atm. The choice of this computational setup was additionally prompted by its success in modeling mechanisms of various antioxidants, and in reproducing kinetic and thermodynamic parameters of a variety of organic and enzymatic reactions. According to the literature, there are several mechanisms that relate to the antioxidative properties of molecules. Here, we inspected the two most frequent, and usually thermodynamically most preferred antioxidant mechanisms, namely hydrogen atom transfer (HAT), and single electron transfer (SET) that is commonly followed by proton transfer (SET-PT). All these mechanisms result in the formation of the same antioxidant radical.
HAT is a major route where the H atom (hydrogen radical, H•) is directly transferred from an antioxidant (M) to a free radical accompanied by the homolytic M–H bond cleavage. The capacity of this process is governed by the M–H bond dissociation energy (BDE), calculated as:M–H → M• + H• BDE = G(M•) + G(H•) − G(M–H).
Scavenging the free radicals can also be accomplished by donating an electron from a system M in the SET-PT process. This process is driven by the adiabatic ionization energy (IE) necessary to eject a single electron from M, calculated as:M → M•^+ + e^− IE = G(M•^+) − G(M).

In series [3] the test system is HCT 116 (colon carcinoma). Nature of the series: Antiproliferative activity in vitro (MTT assay). In kind it is cell-based, human. To be noted: 72 h incubation, concentration that causes 50% growth inhibition, read-out: IC50 HCT116. Here is the method:
(§1) The experiments were performed on four human cell lines, including HCT 116 (colon carcinoma), H 460 (lung carcinoma), MCF-7 (breast carcinoma), and HEK 293 (human embryonic kidney cells), in line with previously published experimental procedures. Briefly, the cells were grown in DMEM medium with the addition of 10% fetal bovine serum (FBS), 2 mM L-glutamine, 100 U/mL penicillin, and 100 µg/mL streptomycin, and cultured as monolayers at 37 °C in a humidified atmosphere with 5% CO2. Cells were seeded at 2 × 10^3 cells/well in a standard 96-well microtiter plates and left to attach for 24 h. The next day, a test compound was added in five serial 10-fold dilutions. The rate of cell growth was evaluated after 72 h of incubation with MTT assays. The obtained results are expressed as IC50 values, calculated from the concentration-response curve using linear regression analysis by fitting the test concentrations that give PG values above and below the reference value (i.e., 50%). Each test was performed in quadruplicate in at least two individual experiments.

For the next series, the system named is H 460 (lung carcinoma). The experiment in a line: Antiproliferative activity in vitro (MTT assay). In kind it is cell-based, human. To be noted: 72 h incubation, concentration that causes 50% growth inhibition. The protocol:
as §1
In general terms: Formazan colour is commonly taken as a measure of viable cells.

In the next series the test system is MCF-7 (breast carcinoma). Nature of the series: Antiproliferative activity in vitro (MTT assay). In kind it is cell-based, human. To be noted: 72 h incubation, concentration that causes 50% growth inhibition. Here is the method: as §1
Series [4] has as its system HEK 293 (human embryonic kidney cells). Nature of the series: Cytotoxic activity on non-cancerous cells (MTT assay). In kind it is cell-based. To be noted: non-tumor cell line, 72 h incubation, MTT, concentration that causes 50% growth inhibition. Here is the method: as §1
Series [5] can be described thus: DPPH free radical scavenging. Also noted: key to DPPH IC50: –: Very low activity. In kind it is biochemical. To be noted: after 30 min of incubation with 100 μM DPPH. The protocol:
The reducing activity of investigated systems was achieved by the DPPH method according to previously described procedures with modifications to assure the use in a 96-well microplate. Briefly, equal volumes of various concentrations of tested molecules (dissolved in DMSO) were added to the solution of DPPH (final concentration 50 µM in absolute ethanol). Ethanol and DMSO were used as control solutions in line with earlier reports.

Series [6] can be described thus: Ferric reducing/antioxidant power (FRAP assay). In kind it is biochemical. Details: key to FRAP: –: Very low activity. To be noted: means ± standard deviation; absorbance at 593 nm. The protocol: The FRAP method was carried out according to previously described procedures with some modifications to be compatible with an assay on a 96-well microplate. All tests were done in triplicate, while the obtained results were averaged and reported as Fe^2+ equivalents (Fe^2+ µmol).
By using the FRAP assay, we investigated the reducing power of investigated systems, which was monitored by the corresponding changes in the absorbance at 593 nm. This method is based on the ability of systems to reduce the ferric tripyridyl triazine complex (TPTZ) to the ferrous state (Fe^2+), which can be seen by an intense blue color. […] Good reducing ability was shown by the trimethoxy substituted benzimidazole-2-carboxamide 14 bearing the amino group (1102.5 ± 14.1 mmolFe^2+/mmolC).

[7] abbreviates: monocationic, in acetonitrile ref 39.

Each structure is given as a SMILES string. Read-outs that look alike come from different tables or passages of the source.

Consider `Nc1ccccc1` [Ph–NH3^+], for which, in series [1] (setting [7]), the BDE was 84.9 kcal/mol.

Take `NC1CCCCC1` [c-C6H11–NH3^+]: in series [1] (setting [7]), the BDE was 113.6 kcal/mol.

As to `COc1cc(C(=O)Nc2nc3ccc(N)cc3[nH]2)cc(OC)c1OC` [Compound M22], the “more potent antioxidant (lower BDE) than nitro-substituted M21” value in series [2] (difference to M21) was about 15 kcal/mol.

For `O=C(Nc1nc2ccccc2s1)c1ccc(O)cc1` [Compound M8], the “BDE lower than BDE (M1)” value in series [2] was 4.8 kcal/mol.

Consider `O=C(NC1=Nc2ccccc2C1)c1ccccc1` [Compound M4], for which the “BDE lower than BDE (M1)” value in series [2] is 10.1 kcal/mol.

With `COc1ccc(N)cc1` [4-OMe-aniline], the “N–H BDE” value in series [1] was 87.2 kcal/mol.

With `Nc1ccccc1` [aniline], the “N–H BDE” value in series [1] was 89.1 kcal/mol.

In the case of `O=C(Nc1nc2ccccc2s1)c1ccccc1` [Compound M1], the “BDE higher than that for BHT” value in series [2] (difference to BHT (65.8)) was 16.9 kcal/mol.

Take `COc1ccc(C(=O)Nc2nc3ccccc3s2)cc1` [Compound M9]: the “BDE lower than BDE (M1)” value in series [2] is 0.5 kcal/mol.

Consider `CN` [Me–NH3^+], for which, in series [1] (setting [7]), the BDE is 114.6 kcal/mol.

Consider `O=C(Nc1nc2ccc([N+](=O)[O-])cc2s1)c1ccc(O)cc1` [Compound M10], for which, in series [2] (difference to M8), the “lowering of antioxidative capacity (BDE increase) relative to M8” value was 1.1 kcal/mol.

`Oc1cccc(O)c1O` [1,2,3-trihydroxybenzene]: the “calculated BDE lower than that for its 1,3,5-trihydroxy analogue” value in series [1] (in toluene ref 46) is 15 kcal mol^−1.

With `O=C(O)c1cc(O)c(O)c(O)c1` [gallic acid], in series [1], the “calculated BDE” value was 77.0 kcal/mol.

In the case of `O=C(Nc1nc2ccc([N+](=O)[O-])cc2s1)c1ccccc1O` [Compound 27, 2-hydroxy-N-(6-nitrobenzothiazol-2-yl)benzamide], the IC50 (usually the concentration needed to halve the response being measured) in series [3] (Homo sapiens, HCT-116, 72 h) stood at 6 ± 1 µM; with H 460 (lung carcinoma) (Homo sapiens, NCI-H460, 72 h) it was 3 ± 0.2 µM; in the series on MCF-7 (breast carcinoma) (Homo sapiens, MCF7, 72 h) it was 2 ± 0.6 µM; in series [4] (Homo sapiens, HEK293), 3 ± 1 µM. For the same compound, the “DPPH IC50” value in series [5] is “–”. Further, the FRAP result in series [6] is “–”.

In the case of `N#Cc1ccc(N)cc1` [Compound 4-CN-aniline, 4-CN-aniline], in series [1], the “N–H BDE” value was 91.8 kcal/mol.

Take `Cc1cc(C(C)(C)C)c(O)c(C(C)(C)C)c1` [BHT, butylated hydroxytoluene, reference compound]: the BDE is 76.9 kcal/mol in series [1] (in benzene ref 45), 79.9 kcal/mol in series [1] (in heptane ref 44) and 72.4 kcal/mol in series [1] (in toluene ref 46). In addition, in series [5], half-maximal inhibition (IC50) was put at 25 ± 4 µM. In series [6], this compound displayed an FRAP of 2089 ± 60 mmolFe^2+/mmolC.

Turning to `O=C(Nc1ccccc1)c1ccccc1` [Ph–CO–NH–Ph, reference compound], in series [1] (earlier calculations of the authors ref 24), the BDE was 85.3 kcal/mol.

Take `COc1ccc(C(=O)Nc2nc3ccc(N)cc3s2)c(OC)c1.Cl` [Compound 22, N-(6-aminobenzothiazol-2-yl)-2,4-dimethoxybenzamide hydrochloride]: the IC50 in series [3] was found to be 8 ± 2 µM; in the series on H 460 (lung carcinoma), 50 ± 8 µM; in the series with MCF-7 (breast carcinoma) it was 3 ± 0.2 µM; in series [4], 11 ± 1 µM; in series [5], 4 ± 0.04 µM. This compound also registered an FRAP in series [6] of 244.2 ± 3.0 mmolFe^2+/mmolC.

On to `Nc1ccc2nc(NC(=O)c3ccccc3)sc2c1` [Compound M6], for which, in series [2], the “BDE lower than BDE (M1)” value is 7.1 kcal/mol.

In the case of `Nc1ccc2nc(NC(=O)c3ccccc3)sc2c1` [Compound M7], the “BDE lower than BDE (BHT)” value in series [2] (difference to BHT (65.8)) is 17.5 kcal/mol.

For `COc1ccc(C(=O)Nc2nc3ccc([N+](=O)[O-])cc3[nH]2)c(OC)c1` [Compound 7, 2,4-dimethoxy-N-[5(6)-nitrobenzimidazol-2-yl]benzamide], the IC50 was found to be 3 ± 0.2 µM in series [3] (Homo sapiens, HCT-116, 72 h); 4 ± 2 µM with H 460 (lung carcinoma) (Homo sapiens, NCI-H460, 72 h); 2 ± 0.9 µM with MCF-7 (breast carcinoma) (Homo sapiens, MCF7, 72 h); 2 ± 0.3 µM in series [4] (Homo sapiens, HEK293). Moreover, the “DPPH IC50” value in series [5] is on record as “–”. The FRAP in series [6] came out at 139.6 ± 16.9 mmolFe^2+/mmolC.

For the compound `Oc1ccccc1` [phenol], the “calculated BDE” value in series [1] was 82.9 kcal/mol.
